Data from patent publication US20230146455A1, “TREATMENT OF INFLAMMATORY DISEASES WITH PEPTIDES AND PHARMACEUTICAL COMPOSITIONS” (Yuyu Pharma, Inc., priority 2020, published 2023).
Several values for one entry are separate records, joined by “and”; a condition that tells them apart may be missing. Equal entries are not always repeated. Where a SMILES comes first, the peptide text is derived from it. [ ]: non-standard residue; d: D form. Hyp = O=C(O)[C@@H]1C[C@@H](O)CN1

Assays:
MMP-9 = assay: Example 8 main study Luminex, LPS hPBMCs: MMP-9; assay type: cell-based, human; conditions: PBMC without LPS, test article 500 nM; single replicates (1st, 2nd)
Protocol: (§1) Human PBMCs were pretreated with YY-101, YDE-011, YDE-043 or reference compound; Xiidra® at various concentration (ranging from […] to 500 nM) for 2 h before stimulation. An equal volume of 0.5% DMSO was used as a vehicle control. Then, the cells were treated with LPS at 5 ug/ml, which was selected based on the pilot study. The supernatants from treated cells were harvested at 24 h and placed in a 96 well for Luminex cytokine & chemokine profiling using a Luminex 200 multiplex assay (Luminex; R&D system, USA).
(§2) The main study arm with triplicate wells per group in a 24-well plate: • 1. Blank • 2. PBMC: 0.5% DMSO • 3. PBMC+LPS (5 ug/ml) • 4. PBMC+YY-101 500 nM • 5. PBMC+YY-101 50 nM • 6. PBMC+YY-101 5 nM • 7. PBMC+YY-101 0.5 nM • 8. PBMC+LPS (5 ug/ml)+Xiidra® 500 nM • 9. PBMC+LPS (5 ug/ml)+Xiidra® 50 nM • 10. PBMC+LPS (5 ug/ml)+Xiidra® 5 nM • 11. PBMC+LPS (5 ug/ml)+Xiidra® 0.5 nM • 12. PBMC+LPS (5 ug/ml)+Xiidra® 0.05 nM • 13. PBMC+LPS (5 ug/ml)+Xiidra® 0.005 nM • 14. PBMC+LPS (5 ug/ml)+YY-101 500 nM • 15. PBMC+LPS (5 ug/ml)+YY-101 50 nM • 16. PBMC+LPS (5 ug/ml)+YY-101 5 nM • 17. PBMC+LPS (5 ug/ml)+YY-101 0.5 nM • 18. PBMC+LPS (5 ug/ml)+YY-101 0.05 nM • 19. PBMC+LPS (5 ug/ml)+YY-101 0.005 nM • 20. PBMC+LPS (5 ug/ml)+YDE-011 500 nM • 21. PBMC+LPS (5 ug/ml)+YDE-011 50 nM • 22. PBMC+LPS (5 ug/ml)+YDE-011 5 nM • 23. PBMC+LPS (5 ug/ml)+YDE-011 0.5 nM • 24. PBMC+LPS (5 ug/ml)+YDE-011 0.05 nM • 25. PBMC+LPS (5 ug/ml)+YDE-011 0.005 nM • 26. PBMC+LPS (5 ug/ml)+YDE-043 500 nM • 27. PBMC+LPS (5 ug/ml)+YDE-043 50 nM • 28. PBMC+LPS (5 ug/ml)+YDE-043 5 nM • 29. PBMC+LPS (5 ug/ml)+YDE-043 0.5 nM • 30. PBMC+LPS (5 ug/ml)+YDE-043 0.05 nM • 31. PBMC+LPS (5 ug/ml)+YDE-043 0.005 nM
(§3) Multiplex assay was used to measure 30 cytokines and chemokines. The 1:200 diluted cell supernatant and serial dilution of the standard were dispensed into a 96 well plate at 50 ul/well. Then, the pre-mixed cocktail of antibody-coated magnetic beads was dispensed at 50 ul/well and incubated at room temperature for 2 h in a horizontal orbital microplate shaker at 800±500 rpm. The beads were washed using a magnetic device to prevent loss. The biotin-antibody was dispensed in 50 ul of each well and incubated at room temperature for 1 h in a shaker at 800±500 rpm. After washing, streptavidin-PE was added at 50 ul/well and incubated at room temperature for 30 min in a shaker under the same conditions. Finally, after washing, wash buffer (100 ul/well) was added to the plate and incubated in a shaker for 2 min. The Luminex™ 200 setting were set according to the manufacturer's protocol. The data was calculated with a standard five-parameter logistic nonlinear regression analysis of the data (xPonent software 4.2, USA). Results were presented as concentration (ng/ml or pg/ml).

CCL4/MIP-1 beta = assay: Example 8 main study Luminex, LPS hPBMCs: CCL4/MIP-1 beta; assay type: cell-based, human
Protocol: as §1, §2, §3

[1] = PBMC + LPS(5 ug/ml) + test article 0.005 nM, Mean
[2] = PBMC + LPS(5 ug/ml) + test article 0.005 nM, single replicates
[3] = PBMC + LPS(5 ug/ml) + test article 0.05 nM, Mean
[4] = PBMC + LPS(5 ug/ml) + test article 0.05 nM, single replicates
[5] = PBMC + LPS(5 ug/ml) + test article 0.5 nM, Mean
[6] = PBMC + LPS(5 ug/ml) + test article 0.5 nM, single replicates
[7] = PBMC + LPS(5 ug/ml) + test article 5 nM, Mean
[8] = PBMC + LPS(5 ug/ml) + test article 5 nM, single replicates
[9] = PBMC + LPS(5 ug/ml) + test article 50 nM, Mean
[10] = PBMC + LPS(5 ug/ml) + test article 50 nM, single replicates
[11] = PBMC + LPS(5 ug/ml) + test article 500 nM, Mean
[12] = PBMC + LPS(5 ug/ml) + test article 500 nM, single replicates
[13] = PBMC + test article 0.5 nM, no LPS, single replicates
[14] = PBMC + test article 5 nM, no LPS, single replicates
[15] = PBMC + test article 0.05 uM, no LPS, single replicates
[16] = PBMC + test article 50 nM, no LPS, single replicates
[17] = PBMC + test article 500 nM, no LPS, single replicates

Question: Which “Concentration (pg/ml), MMP-9” value (MMP-9) does the source give for `CC(C)C[C@H](NC(=O)CNC(=O)[C@H](CC(=O)O)NC(=O)[C@H](CCC(N)=O)NC(=O)CNC(=O)[C@@H]1C[C@@H](O)CN1)C(=O)N[C@@H](C)C(=O)NCC(=O)N1CCC[C@H]1C(=O)N[C@@H](CCCCN)C(=O)O` [YY-101] (H-[Hyp]GQDGLAGPK-OH; N-terminus and C-terminus assumed) here?
Answer: Its value is 10126.8 pg/mL and 12153.3 pg/mL.

Question: And the “MFI (Bead name: MMP-9)” value (MMP-9)?
Answer: The value was 48.0 and 54.0.

Question: And the “CCL4/MIP-1 beta Concentration” value (CCL4/MIP-1 beta; [1])?
Answer: The value was 21677.4 pg/mL.

Question: What about the “CCL4/MIP-1 beta MFI” value (CCL4/MIP-1 beta; [1]) of the same compound?
Answer: Its value is 12.7.

Question: And the “CCL4/MIP-1 beta Concentration” value (CCL4/MIP-1 beta; [2])?
Answer: Its value is 25629.7 pg/ml and 19701.2 pg/ml (2×).

Question: And the “CCL4/MIP-1 beta MFI” value (CCL4/MIP-1 beta; [2])?
Answer: The value was 14.0 and 12.0 (2×).

Question: What about the “CCL4/MIP-1 beta Concentration” value (CCL4/MIP-1 beta; [3]) of the same compound?
Answer: The value was 21011.4 pg/mL.

Question: And the “CCL4/MIP-1 beta MFI” value (CCL4/MIP-1 beta; [3])?
Answer: Its value is 12.5.

Question: And the “CCL4/MIP-1 beta Concentration” value (CCL4/MIP-1 beta; [4])?
Answer: The value was 25629.7 pg/mL and 17703.4 pg/mL and 19701.2 pg/mL.

Question: And the “CCL4/MIP-1 beta MFI” value (CCL4/MIP-1 beta; [4])?
Answer: The value was 14.0 and 11.5 and 12.0.

Question: And the “CCL4/MIP-1 beta Concentration” value (CCL4/MIP-1 beta; [5])?
Answer: The value was 21011.4 pg/mL.

Question: And the “CCL4/MIP-1 beta MFI” value (CCL4/MIP-1 beta; [5])?
Answer: Its value is 12.5.

Question: What about the “CCL4/MIP-1 beta Concentration” value (CCL4/MIP-1 beta; [6]) of the same compound?
Answer: Its value is 17703.4 pg/mL and 25629.7 pg/mL and 19701.2 pg/mL.

Question: And the “CCL4/MIP-1 beta MFI” value (CCL4/MIP-1 beta; [6])?
Answer: The value was 11.5 and 14.0 and 12.0.

Question: And the “CCL4/MIP-1 beta Concentration” value (CCL4/MIP-1 beta; [7])?
Answer: The value was 16072.8 pg/mL.

Question: What about the “CCL4/MIP-1 beta MFI” value (CCL4/MIP-1 beta; [7]) of the same compound?
Answer: Its value is 11.2.

Question: What about the “CCL4/MIP-1 beta Concentration” value (CCL4/MIP-1 beta; [8]) of the same compound?
Answer: Its value is 17703.4 pg/ml and 15257.5 pg/ml (2×).

Question: And the “CCL4/MIP-1 beta MFI” value (CCL4/MIP-1 beta; [8])?
Answer: Its value is 11.5 and 11.0 (2×).

Question: What about the “CCL4/MIP-1 beta Concentration” value (CCL4/MIP-1 beta; [9]) of the same compound?
Answer: Its value is 16738.7 pg/mL.

Question: What about the “CCL4/MIP-1 beta MFI” value (CCL4/MIP-1 beta; [9]) of the same compound?
Answer: The value was 11.3.

Question: What about the “CCL4/MIP-1 beta Concentration” value (CCL4/MIP-1 beta; [10]) of the same compound?
Answer: The value was 15257.5 pg/ml (2×) and 19701.2 pg/ml.

Question: What about the “CCL4/MIP-1 beta MFI” value (CCL4/MIP-1 beta; [10]) of the same compound?
Answer: Its value is 11.0 (2×) and 12.0.

Question: And the “CCL4/MIP-1 beta Concentration” value (CCL4/MIP-1 beta; [11])?
Answer: The value was 18220.0 pg/mL.

Question: And the “CCL4/MIP-1 beta MFI” value (CCL4/MIP-1 beta; [11])?
Answer: The value was 11.7.

Question: What about the “CCL4/MIP-1 beta Concentration” value (CCL4/MIP-1 beta; [12]) of the same compound?
Answer: Its value is 15257.5 pg/ml and 19701.2 pg/ml (2×).

Question: What about the “CCL4/MIP-1 beta MFI” value (CCL4/MIP-1 beta; [12]) of the same compound?
Answer: Its value is 11.0 and 12.0 (2×).

Question: What about the “CCL4/MIP-1 beta MFI” value (CCL4/MIP-1 beta; PBMC + test article 0.5 nM, no LPS, Mean) of the same compound?
Answer: Its value is 6.0.

Question: What about the “CCL4/MIP-1 beta Concentration” value (CCL4/MIP-1 beta; [13]) of the same compound?
Answer: The value was <148.02 pg/mL.

Question: And the “CCL4/MIP-1 beta MFI” value (CCL4/MIP-1 beta; [13])?
Answer: The value was 6.0.

Question: What about the “CCL4/MIP-1 beta MFI” value (CCL4/MIP-1 beta; PBMC + test article 5 nM, no LPS, Mean) of the same compound?
Answer: The value was 6.5.

Question: And the “CCL4/MIP-1 beta Concentration” value (CCL4/MIP-1 beta; [14])?
Answer: The value was <148.02 pg/mL.

Question: And the “CCL4/MIP-1 beta MFI” value (CCL4/MIP-1 beta; [14])?
Answer: Its value is 7.0 and 6.0.

Question: And the “CCL4/MIP-1 beta MFI” value (CCL4/MIP-1 beta; PBMC + test article 0.05 uM, no LPS, Mean)?
Answer: The value was 5.5.

Question: And the “CCL4/MIP-1 beta Concentration” value (CCL4/MIP-1 beta; [15])?
Answer: The value was <148.02 pg/mL.

Question: And the “CCL4/MIP-1 beta MFI” value (CCL4/MIP-1 beta; [15])?
Answer: Its value is 6.0 and 5.0.

Question: And the “CCL4/MIP-1 beta MFI” value (CCL4/MIP-1 beta; PBMC + test article 50 nM, no LPS, Mean)?
Answer: The value was 7.5.

Question: And the “CCL4/MIP-1 beta Concentration” value (CCL4/MIP-1 beta; [16])?
Answer: The value was <148.02 pg/mL.

Question: And the “CCL4/MIP-1 beta MFI” value (CCL4/MIP-1 beta; [16])?
Answer: Its value is 8.0 and 7.0.

Question: What about the “CCL4/MIP-1 beta MFI” value (CCL4/MIP-1 beta; PBMC + test article 500 nM, no LPS, Mean) of the same compound?
Answer: The value was 6.5.

Question: What about the “CCL4/MIP-1 beta Concentration” value (CCL4/MIP-1 beta; [17]) of the same compound?
Answer: Its value is <148.02 pg/mL.

Question: What about the “CCL4/MIP-1 beta MFI” value (CCL4/MIP-1 beta; [17]) of the same compound?
Answer: The value was 6.0 and 7.0.

Question: And the “LPS-induced CCL-4 (in words)” value (CCL4/MIP-1 beta; at as low as 5 μM, LPS 5 ug/mL 24 hrs)?
Answer: Its value is “significantly reduced”.
